The test system of one test is Parade Roses®. Description: Flower development on intact flowering rose plants after foliar treatment. In kind it is in vivo. On the set-up: key to Bloom Stage Day 1 / Bloom Stage Day 12: 1: Early bloom; 2: Fully Open; 3: Wilted. As for the experimental part:
Parade Roses® with flowers in the bud to early bloom stage were treated to the point of drip on day 1 and day 2 with an aqueous solution comprising either (1) 0.125% Triton® X-100 and 0.5% canola oil as a control treatment; or (2) 1.5 mM MDHJ, 0.125% Triton® X-100, and 0.5% canola oil. There were four plants per treatment. Approximately 10 ml of each treatment was applied to each plant, comprising approximately 3.9 μL (15 μM MDHJ). Rate of flower development of individual flowers was monitored and compared between treatments. On day 1 and day 12, individual flowers were rated according to their stage of blooming. FIG. 3 is a photographic comparison of treated and untreated plants at day 1 and day 12.

Test [1] concerns field grown ‘Julia Child’ roses. Description: Vase life / bloom stage of cut field grown roses after pre-harvest foliar treatment. In kind it is in vivo. On the set-up: key to Bloom Stage Day 1 / Bloom Stage Day 3: a: Green Bud; b: Full Bud; c: Flower in early bloom stage; d: Flower in fully open stage; Flower in late bloom stage; Fully wilted flower; Flower drooped before fully opening. The method, then:
Foliage of field grown ‘Julia Child’ roses were sprayed to the point of drip 24 hours before harvesting with an aqueous solution comprising 5.0 mM MDHJ, 0.125% Triton® X-100, and 0.5% canola oil. On average, about 100 ml of the formulation was applied per plant, comprising an approximate volume of 130 μl (or 500 μM) MDHJ. Stems of flowers in the bud to early-bloom stage were cut in the field. Stems received a fresh cut while submerged under water before transferring to a water-filled vase. The bloom stage of 4-5 flowers was analyzed on day 1 and day 3, as compared with untreated roses that were otherwise similarly handled. FIG. 1 illustrates the full vases of flowers for the treated and untreated roses on day 1 and day 3, respectively. FIG. 2 illustrates individual roses on day 1 and day 3.

Setting [2] is: plants treated before harvesting, vs untreated.

Several values for one entry are separate records, joined by “and”; a condition that tells them apart may be missing. Identical values can stand only once.

With `CCCCCC1C(=O)CCC1CC(=O)OC` (stereo not shown) [MDHJ, methyl dihydrojasmonate], the “Average Bloom Stage Day 1” value with Parade Roses® (average of 8 flowers, day 1, scale 1 early bloom, 2 fully open, 3 wilted, 1.5 mM MDHJ formulation) is 1.4. Besides, the “Average Bloom Stage Day 12” value with Parade Roses® (average of 8 flowers, day 12, scale 1 early bloom, 2 fully open, 3 wilted, 1.5 mM MDHJ formulation) is given as 1.4. For the same compound, the “Flower development on intact plants” value in the test on Parade Roses® (formulation containing MDHJ vs control formulation without MDHJ) was “prolonged flower development”. In the test with Parade Roses® (individual flowers on intact plants, day 1, 1.5 mM MDHJ, 0.125% Triton X-100, 0.5% canola oil applied day 1 and day 2, listed as Treatment 2), the “Bloom Stage Day 1” value is 2 (3×) and 1 (5×). The “Bloom Stage Day 12” value in the test on Parade Roses® (individual flowers on intact plants, day 12, 1.5 mM MDHJ, 0.125% Triton X-100, 0.5% canola oil applied day 1 and day 2, listed as Treatment 2) was 2 (3×) and 1 (5×). Besides, the “Bloom Stage Day 1” value in test [1] (individual cut flowers, day 1, foliage sprayed 24 hours before harvesting with 5.0 mM MDHJ, 0.125% Triton X-100, 0.5% canola oil, listed as Treated) is “d and c and b (2×)”. For the same compound, in test [1] (individual cut flowers, day 3, foliage sprayed 24 hours before harvesting with 5.0 mM MDHJ, 0.125% Triton X-100, 0.5% canola oil), the “Bloom Stage Day 3” value was “d”. Further, in test [1] (plants treated before harvesting buds and early flowers, vs untreated), the “Ability of buds to open fully into flowers” value was “improving the ability of the buds to open fully into flowers”. Further, in test [1] (setting [2]), the “Bent neck of stems” value was “prevents stems from exhibiting bent neck” and the Flower wilting result is listed as “delays flower wilting”.

The record behind these values is patent US20090133166A1, “Methods for Improving Flowering Characteristics Using Methyl Dihydrojasmonate” (NEW BIOLOGY, INC., priority 2007, published 2009).
